We go through 13 molecules from article PMC12406258, “Uncovering the Unusual Inhibition Mechanism of a Trypanosome Alternative Oxidase Inhibitor Displaying Broad-Spectrum Activity against African Animal Trypanosomes” (Journal of Medicinal Chemistry, 2025).

Structures are written as SMILES. Where “and” joins values, the source holds several entries; their conditions need not be identical. Equal entries are not always repeated. Where two headings read alike, the source gives them in different places. Where only a bound is given, the exact number is not on record here.

Data set [1] has as its target T1, recombinant TAO (ΔMTS rTAO) (Trypanosoma brucei brucei, UniProt Q26710).
T1 construct: […]; SUMO (Small Ubiquitin-related Modifier) fusion from the expression system; made in house
The conditions noted are these: ref reported earlier, cited from earlier work.

Data set [2] relates to T. brucei aqp1-3 null. The data set is described as follows: microbe, parasite or virus in culture. It counts as cell-based, T. b. brucei. The conditions noted are these: Trypanosoma brucei, read-out: aqp1-3 null EC50. The procedure:
(§1) Other Trypanosoma species used in this study include T. evansi AntTat 3/3 (Wild-type); and T. equiperdum BoTat 1 (Bordeaux trypanozoon antigenic type 1) P (wild-type). All the trypanosomes were used only as bloodstream trypomastigotes and cultured in the standard Hirumi’s Modified Iscove’s medium #9 (HMI-9), supplemented with 10% heat-inactivated Fetal Bovine Serum (FBS), 14 μL/L β-mercaptoethanol, and 3.0 g sodium hydrogen carbonate per liter of medium (pH 7.4). Trypanosomes were cultured in vented flasks at 37 °C in a 5% CO2 atmosphere.
(§2) Briefly, this protocol involves preparing a 96-well cell culture plate with a 100 μL serially diluted test compound (200 μM top concentration) in HMI-9 + 10% FBS (24 wells per control drug or test compound, with the 24th well serving as drug-free). This is followed by adjusting the cell density of mid-log-phase trypanosome cultures to the required concentration of 2 × 10^5 cells/mL (2 × 10^4 cells/well). […] All incubations were carried out at 37 °C with 5% CO2. […] EC50 values were calculated using GraphPad Prism 9.0 software via nonlinear regression with an equation for a sigmoidal dose–response curve with variable slope (GraphPad Software Inc., San Diego, CA, USA).

For data set [3], the target named is T1, recombinant TAO (ΔMTS rTAO). The conditions noted are these: ref earlier reports; cited from earlier work.
For data set [4], the system named is STIB900 mouse model. Also noted: method as in previous studies. The conditions noted are these: 24 h after the last treatment, 4 × 10 mg/kg ip; ref previous studies; cited from earlier work.
Details of data set [5]: method as in previous studies. The conditions noted are these: ref previous studies, cited from earlier work.
The test system of data set [6] is T. b. brucei WT (s427) trypomastigotes. As to the kind of experiment: microbe, parasite or virus in culture. It is filed as cell-based. The conditions noted are these: Trypanosoma brucei. The procedure:
as §1, §2

The subject of data set [7] is T. equiperdum WT. As to the kind of experiment: Resazurin-based drug sensitivity assay, T. equiperdum WT. It is filed as cell-based. The conditions noted are these: Trypanosoma equiperdum. As for the experimental part:
as §1, §2
(In general: Resazurin is reduced to fluorescent resorufin, in cell work by metabolically active cells.)

The subject of data set [8] is T. brucei B48. The data set is described as follows: microbe, parasite or virus in culture. It counts as cell-based, T. b. brucei. Particulars: Trypanosoma brucei, read-out: T. brucei B48 EC50. As for the experimental part:
as §1, §2

The test system of data set [9] is T. evansi WT. The data set is described as follows: Resazurin-based drug sensitivity assay, T. evansi WT. It is filed as cell-based. As for the experimental part: as §1, §2
The test system of data set [10] is T. congolense WT. The data set is described as follows: Drug sensitivity assay, T. congolense WT bloodstream forms. It is filed as cell-based. The conditions noted are these: Trypanosoma congolense. As for the experimental part: The susceptibilities of trypanosomes to compound 1 were determined as previously described using the resazurin (Alamar Blue) assay. Briefly, this protocol involves preparing a 96-well cell culture plate with a 100 μL serially diluted test compound (200 μM top concentration) in HMI-9 + 10% FBS (24 wells per control drug or test compound, with the 24th well serving as drug-free). This is followed by adjusting the cell density of mid-log-phase trypanosome cultures to the required concentration of 2 × 10^5 cells/mL (2 × 10^4 cells/well). Then, 100 μL of the adjusted cell density/culture was added to all 24 wells in the plate, then incubating trypanosomes and test compound for 48 h followed by the addition of 20 μL filter-sterilized resazurin solution prepared by adding 25 mg resazurin sodium salt to 200 mL filter-sterilized PBS. This was followed by a further 24 h of incubation. All incubations were carried out at 37 °C with 5% CO2. […] Fluorescence was measured in the 96-well plates with a FLUOstar Optima (BMG Labtech, Durham, NC, USA) at wavelengths of 544 nm for excitation, 590 for emission, and a gain of 1250. EC50 values were calculated using GraphPad Prism 9.0 software via nonlinear regression with an equation for a sigmoidal dose–response curve with variable slope (GraphPad Software Inc., San Diego, CA, USA).

In data set [11] the target is T1, recombinant TAO (ΔMTS rTAO). The data set is described as follows: Inhibition of ubiquinol oxidase activity of purified recombinant TAO. It is filed as biochemical, T. brucei. As for the experimental part: This physiologically relevant rTAO enzyme was used throughout this work and in this experiment to study the inhibitory activity of 1.
As previously described, the Ubiquinol oxidase activity measurement was carried out using recombinant TAO lacking the mitochondrial targeting signal (ΔMTS). […] The reaction was carried out in a 1 cm cuvette for 2 min using a V-630 Jasco UV–vis spectrophotometer (Jasco Corporation, Tokyo, Japan). Briefly, the procedure involves preincubating 250 ng of the enzyme for 2 min in a 50 mM Tris-HCl (pH 7.3) buffer containing the detergent octaethylene glycol monododecylether (0.05% (w/v)) in a total reaction volume of 1 mL at 25 °C. […] For the inhibition reaction, 250 ng of the enzyme was preincubated with varying inhibitor concentrations for 2 min using the same buffer before the substrate was added. […] This was achieved using the same protocol but without TAO. […] The residual activities were plotted against the corresponding inhibitor concentration in a GraphPad Prism-9 software to obtain the IC50 value.

Data set [12] relates to T. b. brucei SUR10. As to the kind of experiment: microbe, parasite or virus in culture. It counts as cell-based. The conditions noted are these: Trypanosoma brucei, read-out: SUR10 EC50.
Where [13] appears, read: read-out: rTAO IC50 (supplementary csv, compounds 4, 6, 8-10, 12), IC50 (µM).
[14] abbreviates: read-out: IC50 against rTAO, activity against TAO reported earlier.

T1 sequence (Q26710 26-329, stated change not applied): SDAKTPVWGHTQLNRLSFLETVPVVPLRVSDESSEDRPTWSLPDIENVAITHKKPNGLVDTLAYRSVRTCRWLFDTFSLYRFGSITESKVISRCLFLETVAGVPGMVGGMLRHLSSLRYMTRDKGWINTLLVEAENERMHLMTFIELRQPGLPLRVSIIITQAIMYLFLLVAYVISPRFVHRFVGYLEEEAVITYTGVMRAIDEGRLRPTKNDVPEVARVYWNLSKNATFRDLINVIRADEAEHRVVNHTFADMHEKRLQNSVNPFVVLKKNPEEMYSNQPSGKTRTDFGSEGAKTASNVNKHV

Broadly, the IC50 is the concentration at which inhibition is half-maximal. In the case of `Cc1cc[n+](CCCCCCCCCCCCCCOC(=O)c2c(C)cc(O)cc2O)cc1` [Compound 10], the IC50 in [1] (setting [13]) was greater than 5 µM.
Broadly, the EC50 is the concentration giving half of the maximal effect. Take `O=C(NO)c1ccccc1O` [SHAM, Salicylhydroxamic acid]: the EC50 in [2] is 6880 ± 110 nM.
On to `Cc1cc(O)cc(O)c1C(=O)OCCCCCCCCCCCCCC[P+](c1ccccc1)(c1ccccc1)c1ccccc1.[Br-]` [Compound 8], for which the “Type of inhibition of TAO” value in [3] was “competitive”. Besides, the IC50 in [1] (setting [14]) was ~0.08 µM and 0.088 µM. Moreover, the Reduction of parasitemia in data set [4] was 95%. In addition, the “Half-life (phase 2 metabolism)” value in [5] (S9 fraction and cofactor UDPGA) is “approximately 2 h”.
Turning to `N=C(N)c1ccc(/N=N/Nc2ccc(C(=N)N)cc2)cc1` [Dim., Diminazene aceturate], the EC50 amounted to 81 ± 13 nM in data set [6] (read-out: T. b. brucei WT (+5 mM glycerol) EC50); 65 ± 21 nM in data set [6] (read-out: T. b. brucei WT (no glycerol) EC50); 33.2 ± 10 nM in [7]; 1220 ± 20 nM in data set [8]; 51.4 ± 12 nM in [9]; 252 ± 18 nM in data set [10].
As to `N=C(N)c1ccc(OCCCCCOc2ccc(C(=N)N)cc2)cc1` [Pent., Pentamidine isethionate], the EC50 is 6.2 ± 1.7 nM in [6] (read-out: T. b. brucei WT (+5 mM glycerol) EC50, incubated in the presence of 5 mM glycerol); 4.2 ± 0.8 nM in [6] (s427, no glycerol, n ≥ 4, read-out: T. b. brucei WT (no glycerol) EC50); 8.1 ± 1.1 nM in [7]; 1020 ± 200 nM in data set [8]; 51.4 ± 11.8 nM in data set [2]; 5.1 ± 2.1 nM in data set [9].
Take `C/C(=C\Cc1c(O)c(Cl)c(C)c(C=O)c1O)CC/C=C(\C)[C@@H]1CC(=O)C(C)(C)O1` [AF, Ascofuranone, reference compound]: in [3], the “Type of inhibition of TAO” value was “competitive”.
In the case of `Cc1cc(O)ccc1C(=O)OCCCCCCCCCCCCCC[n+]1cccc2ccccc21.[Br-]` [Compound 6], the “Type of inhibition of TAO” value in data set [3] was “competitive”. Further, the IC50 in [1] (setting [13]) was 0.03 ± 0.005 µM.
On to `Cc1c(Cl)c(O)c(Cl)c(O)c1C(=O)OCCCCCCCCCCCCCC[P+](c1ccccc1)(c1ccccc1)c1ccccc1` [Compound 7, {14-[(3,5-Dichloro-2,4-dihydroxy-6-methylbenzoyl)-oxy]-tetradecyl}-Triphenylphosphonium Bromide], for which the IC50 in [11] was 160 nM.
With `Cc1cc(O)cc(O)c1C(=O)OCCCCCCCCCCCCCC[P+](c1ccccc1)(c1ccccc1)c1ccccn1` [Compound 2, {14-[(2,4-Dihydroxy-6-methylbenzoyl)-oxy]-tetradecyl}-diphenyl(pyridin-2-yl)-Phosphonium Bromide], the IC50 in data set [11] was 1600 nM.
As for `Cc1cc(O)ccc1C(=O)CCCCCCCCCCCCCCC[P+](c1ccccc1)(c1ccccc1)c1ccccn1.[Br-]` [Compound 3], in [11], the IC50 was greater than 5000 nM. In [11] (5 μM), the “Inhibition of TAO at the highest concentration tested” value is “did not inhibit”.
`Cc1cc(O)cc(O)c1C(=O)OCCCCCCCCCCCCCC[n+]1cccc2ccccc21.[Br-]` [Compound 9]: the IC50 in data set [1] (setting [13]) was 0.104 ± 0.011 µM. The Reduction of parasitemia in data set [4] is 95%. In addition, the “Phase 2 metabolism” value in data set [5] was “lack of phase 2 metabolism”.
Consider `Cc1ccc(C(=O)Nc2ccc(S(=O)(=O)O)c3cc(S(=O)(=O)O)cc(S(=O)(=O)O)c23)cc1NC(=O)c1cccc(NC(=O)Nc2cccc(C(=O)Nc3cc(C(=O)Nc4ccc(S(=O)(=O)O)c5cc(S(=O)(=O)O)cc(S(=O)(=O)O)c45)ccc3C)c2)c1` [Suramin, reference compound], for which the EC50 in [12] was 190 ± 20 nM.
Regarding `Cc1cc(O)ccc1C(=O)OCCCCCCCCCCCCCC[P+](c1ccccc1)(c1ccccc1)c1ccccc1` [Compound 4], the IC50 in data set [1] (setting [14]) was 0.081 µM and ~0.08 µM.
